Experimental data reported in article PMC10959927, “Platinum iodido drugs show potential anti-tumor activity, affecting cancer cell metabolism and inducing ROS and senescence in gastrointestinal cancer cells” (Communications Biology, 2024).
Values joined by “and” are separate entries in the source; they are usually repeats but may differ in a detail not shown here. Equal values may be shown once. Read-outs that look alike come from different tables or passages of the source.

Assays:
Assay in all cases: Cell viability, crystal violet staining
[1] = system: MKN45 cells; conditions: read-out: IC50 concentration (± SD) at 48 h, 48 h
Protocol: (§1) Cell viability was assessed using a crystal violet-based staining method. […] The cells (2 × 10^5) were seeded in 24-multiwell dishes in 0.5 mL of complete medium and incubated overnight. […] After 48 h, cells were fixed with 1% glutaraldehyde (20–30 min), washed with distilled water, and stained with 0.1% crystal violet. […] IC50 were calculated by using GraphPad Prism (version 8.0). Nonlinear regression was used to fit the data to the log (inhibitor) versus response (variable slope).

[2] = system: PANC1 cells; conditions: read-out: IC50 concentration (± SD) at 48 h, 48 h
Protocol: as §1

[3] = system: AGS cells; conditions: read-out: IC50 concentration (± SD) at 48 h, AGS, 48 h
Protocol: as §1

IC50 ([1]; MKN45, NAC (+) 0.5 mM): 10.2 ± 1.56 µM | IC50 ([1]; MKN45, NAC (-)): 10 µM and 9.45 µM | IC50 ([2]; PANC1, NAC (+) 0.5 mM): 9.46 ± 1.29 µM | IC50 ([2]; PANC1, NAC (-)): 10 µM and 12.3 µM | IC50 ([3]; NAC (+) 0.5 mM): 22.7 ± 4.03 µM | IC50 ([3]; NAC (-)): 26.7 ± 2.21 µM
Structure (SMILES): [NH2][Pt]([NH2])([Cl])[Cl] [CDDP, cisplatin, reference compound]
